Measurements: patent publication US8101732B2, “Methods of producing validamycin A analogs and uses thereof” (State of Oregon acting by and through the State Board of …, priority 2008, dated 2012)

Tested on: Pellicularia sasakii (=R. solani)
Experiment: Fungal growth inhibitory assay (agar plug assay)
Assay type: cell-based
Conditions: growth monitored after two days, FIG. 4
Method: Fungal growth inhibitory assay of 1,1′-bis-valienamine (3) and validienamycin (4): 1% agar (14 mL) was mixed with the compounds (dissolved in 1 mL H2O) and then plated into Petri dishes. Discs of PDA agar with mycelia of Pellicularia sasakii were placed in the center of the above plates as the indicator strain for bioassay of the compounds. The plates were incubated at 30° C. for 2 days.
Antifungal activity assays of compounds 3 and 4 were tested against Pellicularia sasakii (=R. solani) using an agar plug assay (Minagawa et al., Chembiochem 8: 632-641, 2007). Agar plugs with diameter of 5 mm and containing P. sasakii mycelia were placed in the center of agar plates that contain each compound and the growth of the pathogen was monitored after two days. Active compounds were determined based on their ability to inhibit the expansion of the fungal mycelia on the Petri dishes.

Structure (SMILES): OCC1=C[C@H](N[C@H]2C[C@H](CO)[C@@H](O[C@@H]3OC(CO)[C@@H](O)C(O)[C@H]3O)[C@H](O)[C@H]2O)[C@H](O)[C@@H](O)[C@@H]1O (some centres unmarked) [Compound 1, validamycin A]
- fungistatic activity (inhibition of expansion of the fungal mycelia) (lower concentration (0.02 mM) in agar plate): the most active compound among those evaluated

Structure (SMILES): OCC1=C[C@H](N[C@H]2C=C(CO)[C@@H](O)[C@H](O)[C@H]2O)[C@H](O)[C@@H](O)[C@@H]1O [Compound 4, validienamycin]
- fungistatic activity (inhibition of expansion of the fungal mycelia) (0.2 mM concentration in agar plate): comparable fungistatic activity with 1 and 2
